Earlier results as cited in EP1935397A1, “Oral and tooth care and cleaning agents for combating halitosis” (Henkel AG & Co. KGaA, priority 2006, dated 2008).

Conditions: 20°C

Löslichkeit | Compound
~350 g/l (20°C) | Zinksulfat-Monohydrat
0,9 mg/l (20°C) | Zinkstearat
1843 g/l (20°C) | Zinknitrat Hexahydrat
430 g/l (20°C) | Zinkacetat-Dihydrat
4500 g/l (20°C) | Zinkiodid
960 g/l (20°C) | Zinksulfat-Heptahydat
100 g/l (20°C) | Zinkgluconat

Same assay, conditions: 20°C; result in words

Löslichkeit | Compound
Leicht löslich (20°C) | Zinknitrat-Tetrahydrat
Fast unlöslich (20°C) | Zinkhydroxycarbonat

Same assay, conditions: 25°C

Löslichkeit | Compound
820 g/l (25°C) | Zinkbromid
4320 g/l (25°C) | Zinkchlorid

Same assay, conditions: temperature not given; result in words

Löslichkeit | Compound
Unlöslich | [O-2].[Zn+2] [Zinkoxid]
